The values that follow come from patent US7528138B2, “Pyrazolo[1,5-a]pyrimidines useful as inhibitors of protein kinases” (Vertex Pharmaceuticals Incorporated, priority 2004, dated 2009).

The target in one assay is T1, JAK3 (Homo sapiens, UniProt P52333).
T1 sequence (P52333 1-1124): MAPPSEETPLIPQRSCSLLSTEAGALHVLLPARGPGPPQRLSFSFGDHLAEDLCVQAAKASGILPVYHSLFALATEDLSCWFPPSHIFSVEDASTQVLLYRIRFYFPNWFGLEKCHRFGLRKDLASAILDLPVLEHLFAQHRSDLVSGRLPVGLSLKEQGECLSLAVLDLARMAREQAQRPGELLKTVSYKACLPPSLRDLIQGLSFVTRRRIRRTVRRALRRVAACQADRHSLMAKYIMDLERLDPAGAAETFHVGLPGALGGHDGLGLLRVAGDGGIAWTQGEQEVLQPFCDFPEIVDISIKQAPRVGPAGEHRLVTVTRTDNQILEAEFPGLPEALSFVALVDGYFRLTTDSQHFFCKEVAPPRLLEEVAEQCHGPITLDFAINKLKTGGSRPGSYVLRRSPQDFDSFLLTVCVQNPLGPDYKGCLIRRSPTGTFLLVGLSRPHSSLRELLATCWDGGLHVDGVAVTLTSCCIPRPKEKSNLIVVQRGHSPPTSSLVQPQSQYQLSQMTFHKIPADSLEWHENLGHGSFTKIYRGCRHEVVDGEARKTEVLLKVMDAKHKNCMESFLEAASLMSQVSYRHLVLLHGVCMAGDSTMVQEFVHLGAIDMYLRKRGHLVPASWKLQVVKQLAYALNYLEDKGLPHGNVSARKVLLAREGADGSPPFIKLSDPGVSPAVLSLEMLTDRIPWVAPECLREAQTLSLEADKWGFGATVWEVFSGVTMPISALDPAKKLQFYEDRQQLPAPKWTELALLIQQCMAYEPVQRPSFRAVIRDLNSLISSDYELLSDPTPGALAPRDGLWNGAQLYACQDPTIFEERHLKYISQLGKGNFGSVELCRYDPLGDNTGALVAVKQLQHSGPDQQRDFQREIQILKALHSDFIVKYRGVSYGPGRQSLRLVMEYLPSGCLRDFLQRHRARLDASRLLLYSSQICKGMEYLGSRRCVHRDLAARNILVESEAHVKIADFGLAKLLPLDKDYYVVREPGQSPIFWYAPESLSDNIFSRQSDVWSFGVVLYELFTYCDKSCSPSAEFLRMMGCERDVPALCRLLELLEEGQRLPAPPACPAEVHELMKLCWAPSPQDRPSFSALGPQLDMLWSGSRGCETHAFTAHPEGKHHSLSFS
The assay can be described thus: JAK3 Inhibition Assay, 33P incorporation. The class given is biochemical. Particulars: enzyme inhibition data (Ki), Table 11. Summed up: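 33P incorporation into 1 μM poly(Glu)4Tyr was counted after TCA stop and glass fiber filtration. The 20 min reaction ran at 25 °C with 1 nM JAK3 and 5 μM ATP (200 uCi/μmole). Buffer was 100 mM HEPES pH 7.4, 10 mM MgCl2, 25 mM NaCl, 1 mM DTT, 0.01% BSA.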

Another assay concerns the target T2, Aurora-2 (Homo sapiens, UniProt O14965).
T2 sequence (O14965 1-403): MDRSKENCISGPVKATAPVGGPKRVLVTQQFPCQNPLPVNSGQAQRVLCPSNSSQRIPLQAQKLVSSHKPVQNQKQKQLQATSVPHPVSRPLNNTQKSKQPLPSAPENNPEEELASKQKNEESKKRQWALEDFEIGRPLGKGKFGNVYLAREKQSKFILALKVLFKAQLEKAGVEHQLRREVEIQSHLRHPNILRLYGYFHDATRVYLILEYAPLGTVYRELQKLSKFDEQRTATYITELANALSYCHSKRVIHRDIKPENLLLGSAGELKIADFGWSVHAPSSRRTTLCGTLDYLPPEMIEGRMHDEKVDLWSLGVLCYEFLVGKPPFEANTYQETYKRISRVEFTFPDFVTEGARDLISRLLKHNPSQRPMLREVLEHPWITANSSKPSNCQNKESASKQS
The assay can be described thus: Aurora-A (Aurora-2) Inhibition Assay, coupled enzyme assay. The class given is biochemical. Particulars: enzyme inhibition data (Ki), Table 11; read-out: AurA Ki. As for the experimental part:
Compounds are screened for their ability to inhibit Aurora-2 using a standard coupled enzyme assay (Fox et al., Protein Sci., (1998) 7, 2249). Assays are carried out in a mixture of 100 mM Hepes (pH7.5), 10 mM MgCl2, 1 mM DTT, 25 mM NaCl, 2.5 mM phosphoenolpyruvate, 300 μM NADH, 30 μg/ml pyruvate kinase and 10 μg/ml lactate dehydrogenase. Final substrate concentrations in the assay are 400 μM ATP (Sigma Chemicals) and 570 μM peptide (Kemptide, American Peptide, Sunnyvale, Calif.). Assays are carried out at 30° C. and in the presence of 40 nM Aurora-2.
An assay stock buffer solution is prepared containing all of the reagents listed above, with the exception of Aurora-2 and the test compound of interest. 55 μl of the stock solution is placed in a 96 well plate followed by addition of 2 μl of DMSO stock containing serial dilutions of the test compound (typically starting from a final concentration of 7.5 μM). The plate is preincubated for 10 minutes at 30° C. and the reaction initiated by addition of 10 μl of Aurora-2. Initial reaction rates are determined with a Molecular Devices SpectraMax Plus plate reader over a 10 minute time course. IC50 and Ki data are calculated from non-linear regression analysis using the Prism software package (GraphPad Prism version 3.0cx for Macintosh, GraphPad Software, San Diego Calif., USA).

Consider `CCN(CC)c1cc(-c2c(N)nn3cc(-c4ccncc4)cnc23)ncn1` [Compound V-180], for which the Ki at JAK3 and at Aurora-2 was below 0.5 µM throughout.

Regarding `CCN1CCN(C(=O)c2cccc(-c3cnc4c(-c5ccccn5)c(N)nn4c3)n2)CC1` [Compound V-102], the Ki – broadly, the dissociation constant of the complex between target and ligand, obtained from inhibition or displacement – on JAK3 is above 5 µM; at Aurora-2, 0.5 to 5 µM.

For the compound `Cc1cccnc1-c1c(N)nn2cc(-c3ccncc3)cnc12` [Compound V-135], the Ki at JAK3 was above 5 µM; on Aurora-2, 0.5 to 5 µM.

Turning to `NCc1cccc(-c2cnc3c(-c4ccccn4)c(N)nn3c2)c1` [Compound V-202], the Ki at JAK3 was above 5 µM; on Aurora-2, 0.5 to 5 µM.

Consider `COc1ccc(-c2cnc3c(-c4ccncc4)c(N)nn3c2)cc1` [Compound V-219], for which the Ki at JAK3 was above 5 µM; on Aurora-2, 0.5 to 5 µM.

On to `Nc1nn2cc(-c3ccc(CN4CCNCC4)cc3)cnc2c1-c1ccccn1` [Compound V-217], for which the Ki on JAK3 was 0.5 to 5 µM; on Aurora-2 it was below 0.5 µM.

Regarding `Nc1nn2cc(-c3ccncc3)cnc2c1-c1ncccc1OCc1ccccc1` [Compound V-134], the Ki at JAK3 was above 5 µM; at Aurora-2, 0.5 to 5 µM.

In the case of `COCCNc1ccc(-c2cnc3c(-c4ccccn4)c(N)nn3c2)cn1` [Compound V-156], the inhibition constant (Ki) on JAK3 is above 5 µM; at Aurora-2 it was 0.5 to 5 µM.

On to `CCCN(CC)c1cc(-c2c(N)nn3cc(-c4ccncc4)cnc23)ncn1` [Compound V-244], for which the inhibitory constant (Ki) at JAK3 and on Aurora-2 was below 0.5 µM each time.

Regarding `Nc1nn2cc(-c3ccncc3)cnc2c1-c1cc(NCC2CCCCC2)ncn1` [Compound V-184], the Ki is 0.5 to 5 µM on JAK3 and below 0.5 µM at Aurora-2.

For `CN(C)Cc1ccc(-c2cnc3c(-c4ccccn4)c(N)nn3c2)cc1` [Compound V-214], the Ki on JAK3 was 0.5 to 5 µM; at Aurora-2, below 0.5 µM.

As for `Nc1nn2cc(-c3ccc(N4CCNCC4)nc3)cnc2c1-c1ccccn1` [Compound V-151], the Ki at JAK3 is above 5 µM; on Aurora-2 it was 0.5 to 5 µM.

Turning to `CCN(CCC#N)C(=O)c1cccc(-c2cnc3c(-c4ccccn4)c(N)nn3c2)n1` [Compound V-116], the Ki was above 5 µM on JAK3 and 0.5 to 5 µM at Aurora-2.

Consider `Nc1nn2cc(-c3ccc(N4CCC[C@H]4CN4CCCC4)nc3)cnc2c1-c1ccccn1` [Compound V-152], for which the values for the Ki at JAK3 and at Aurora-2 were above 5 µM and 0.5 to 5 µM, respectively.

On to `CC(C)N1CCN(c2ccc(-c3cnc4c(-c5ccccn5)c(N)nn4c3)cn2)CC1` [Compound V-146], for which the inhibitory constant (Ki) on JAK3 was above 5 µM; at Aurora-2, 0.5 to 5 µM.

Take `NC1NN2C=C(c3cccc(CN4CCCNCC4)c3)C=NC2=C1c1ccccn1` (stereo not shown) [Compound V-228]: the Ki on JAK3 is above 5 µM; at Aurora-2, 0.5 to 5 µM.

As for `Nc1nn2cc(-c3cccc(N4CCNCC4)c3)cnc2c1-c1ccccn1` [Compound V-222], the Ki at JAK3 is 0.5 to 5 µM; at Aurora-2, below 0.5 µM.

As to `CN(CCC#N)C(=O)c1cccc(-c2cnc3c(-c4ccccn4)c(N)nn3c2)n1` [Compound V-114], the figures for the Ki on JAK3 and on Aurora-2 were above 5 µM and 0.5 to 5 µM, respectively.

Consider `CCN(CC)CCN(C)c1ccc(-c2cnc3c(-c4ccccn4)c(N)nn3c2)cn1` [Compound V-173], for which the Ki at JAK3 and on Aurora-2 was 0.5 to 5 µM in each case.

As for `Nc1nn2cc(-c3cccc(C(=O)N4CCC[C@@H]4CN4CCCC4)n3)cnc2c1-c1ccccn1` [Compound V-175], the Ki on JAK3 and on Aurora-2 was 0.5 to 5 µM throughout.

Consider `NC1NN2C=C(c3cccc(CN4CC[C@H](N)C4)c3)C=NC2=C1c1ccccn1` (stereo partly shown) [Compound V-227], for which the results for the Ki on JAK3 and at Aurora-2 were above 5 µM and 0.5 to 5 µM, respectively.

For `COc1ccccc1-c1cnc2c(-c3ccccn3)c(N)nn2c1` [Compound V-14], the figures for the Ki on JAK3 and on Aurora-2 were above 5 µM and 0.5 to 5 µM, respectively.

Regarding `CNCCCN(C)C(=O)c1ccc(-c2cnc3c(-c4ccccn4)c(N)nn3c2)cc1` [Compound V-191], the Ki at JAK3 is 0.5 to 5 µM; at Aurora-2, below 0.5 µM.

For the compound `Nc1nn2cc(-c3ccc(C(=O)NC4CCCO4)cn3)cnc2c1-c1ccccn1` (stereo not shown) [Compound V-96], the Ki at JAK3 was above 5 µM; on Aurora-2 it was 0.5 to 5 µM.

In the case of `CCN(CC)C(=O)c1ccc(-c2cnc3c(-c4ccccn4)c(N)nn3c2)nc1` [Compound V-98], the Ki on JAK3 was 0.5 to 5 µM; on Aurora-2 it was below 0.5 µM.

Turning to `CN1CCC(N(C)C(=O)c2cccc(-c3cnc4c(-c5ccccn5)c(N)nn4c3)n2)CC1` [Compound V-101], the results for the inhibition constant (Ki) at JAK3 and at Aurora-2 were above 5 µM and 0.5 to 5 µM, respectively.

`Cc1ccc(-c2c(N)nn3cc(-c4ccncc4)cnc23)nc1` [Compound V-132]: the Ki at JAK3 was above 5 µM; at Aurora-2 it was 0.5 to 5 µM.

With `Nc1nn2cc(-c3ccc(C(=O)N4CCC[C@H]4CN4CCCC4)cn3)cnc2c1-c1ccccn1` [Compound V-177], the Ki at JAK3 was 0.5 to 5 µM; at Aurora-2 it was below 0.5 µM.

As for `Cc1cccc(-c2c(N)nn3cc(-c4ccncc4)cnc23)n1` [Compound V-178], the figures for the inhibitory constant (Ki) at JAK3 and on Aurora-2 were above 5 µM and below 0.5 µM, respectively.

On to `CN(C)CCN(C)C(=O)c1ccc(-c2cnc3c(-c4ccccn4)c(N)nn3c2)cc1` [Compound V-188], for which the Ki on JAK3 was 0.5 to 5 µM; at Aurora-2, below 0.5 µM.

On to `Nc1nn2cc(-c3cccc(C(=O)N4CCC(N)CC4)n3)cnc2c1-c1ccccn1` [Compound V-104], for which the inhibitory constant (Ki) is above 5 µM on JAK3 and 0.5 to 5 µM at Aurora-2.

For the compound `CNCCN(C)C(=O)c1cccc(-c2cnc3c(-c4ccccn4)c(N)nn3c2)c1` [Compound V-189], the Ki at JAK3 and on Aurora-2 was 0.5 to 5 µM throughout.

In the case of `COc1ccccc1Nc1cc(-c2c(N)nn3cc(-c4ccncc4)cnc23)ncn1` [Compound V-242], the Ki on JAK3 and at Aurora-2 was below 0.5 µM each time.

Take `Nc1nn2cc(-c3ccc(N4CCC(N)CC4)nc3)cnc2c1-c1ccccn1` [Compound V-165]: the Ki at JAK3 was above 5 µM; on Aurora-2, below 0.5 µM.

Consider `Nc1nn2cc(-c3cccc(CN4CCNCC4)c3)cnc2c1-c1ccccn1` [Compound V-223], for which the Ki at JAK3 and on Aurora-2 was 0.5 to 5 µM in each case.

`CS(=O)(=O)Nc1cccc(-c2cnc3c(-c4ccccn4)c(N)nn3c2)c1` [Compound V-18]: the Ki at JAK3 was above 5 µM; on Aurora-2, below 0.5 µM.

Regarding `Nc1nn2cc(-c3cccc(C(=O)N4CCCC4CO)n3)cnc2c1-c1ccccn1` (stereo not shown) [Compound V-112], the Ki is above 5 µM at JAK3 and 0.5 to 5 µM on Aurora-2.

On to `Nc1nn2cc(-c3ccc(CN4CC[C@H](N)C4)cc3)cnc2c1-c1ccccn1` [Compound V-233], for which the inhibitory constant (Ki) at JAK3 is 0.5 to 5 µM; on Aurora-2, below 0.5 µM.
